Test results as given in patent US20150313225A1.
Read-outs that look alike come from different tables or passages of the source.

How the values were obtained:
Assay type in all cases: cell-based
[1] = system: Leptosphaeria nodorum; assay: Microtest against wheat leaf spots caused by Leptosphaeria nodorum (Leptno); settings: solo product
[2] = system: Pyricularia oryzae; assay: microbe, parasite or virus in culture; settings: for Observed efficacy: solo product; for inhibition of growth at 1 ppm / inhibition of growth at 0.016 ppm / inhibition of growth at 4 ppm / inhibition of growth at 16 ppm / inhibition of growth at 63 ppm / inhibition of growth at 0.004 ppm: Pyricularia oryzae, 168 h, read-out: Observed efficacy
[3] = system: Alternaria solani; assay: Microtest against early blight caused by Alternaria solani (Alteso); settings: solo product; for inhibition of growth at […]: 0.063 ppm
[4] = system: Septoria tritici; assay: Microtest against leaf blotch on wheat caused by Septoria tritici (Septtr); settings: solo product; for inhibition of growth at 1.6e-05 ppm: 0.000016 ppm
[5] = system: Botrytis cinerea; assay: Microtiterplate test against the grey mold Botrytis cinerea (Botrci); settings: solo product
[6] = system: Phytophthora infestans; assay: microbe, parasite or virus in culture; settings: for Observed efficacy: solo product
[7] = Phytophthora infestans, 168 h, read-out: Observed efficacy
[8] = Botrytis cinerea, 168 h, 0.063 ppm, read-out: Observed efficacy
[9] = Botrytis cinerea, 168 h, 0.25 ppm, read-out: Observed efficacy
[10] = Zymoseptoria tritici, 168 h, read-out: Observed efficacy
[11] = Zymoseptoria tritici, 168 h, […], read-out: Observed efficacy
[12] = Botrytis cinerea, 168 h, 0.016 ppm, read-out: Observed efficacy
[13] = Alternaria solani, 168 h, 0.001 ppm, read-out: Observed efficacy
[14] = Alternaria solani, 168 h, 0.004 ppm, read-out: Observed efficacy
[15] = Alternaria solani, 168 h, 0.016 ppm, read-out: Observed efficacy
[16] = Alternaria solani, 168 h, read-out: Observed efficacy
[17] = Parastagonospora nodorum, 168 h, read-out: Observed efficacy
[18] = Parastagonospora nodorum, 168 h, 0.016 ppm, read-out: Observed efficacy
[19] = Botrytis cinerea, 168 h, read-out: Observed efficacy
[20] = Botrytis cinerea, 168 h, 4 ppm, read-out: Observed efficacy
[21] = Botrytis cinerea, 168 h, 16 ppm, read-out: Observed efficacy
[22] = Alternaria solani, 168 h, 4 ppm, read-out: Observed efficacy
[23] = Alternaria solani, 168 h, 16 ppm, read-out: Observed efficacy
[24] = Alternaria solani, 168 h, 63 ppm, read-out: Observed efficacy

CC1COC(Cn2cncn2)(c2ccc(Oc3ccc(Cl)cc3)cc2Cl)O1 (centres unmarked) [Difenoconazol]
Observed efficacy ([1]; 0.016 ppm): 29
Observed efficacy ([2]; 1 ppm): 11
Observed efficacy ([3]; 0.004 ppm): 5
Observed efficacy ([3]; 0.016 ppm): 5
Observed efficacy ([4]; 0.016 ppm): 26

Fc1ccc([C@]2(Cn3cncn3)O[C@H]2c2ccccc2Cl)cc1 [Epoxiconazol]
Observed efficacy ([5]; 0.016 ppm): 11
Observed efficacy ([3]; 0.004 ppm): 5
Observed efficacy ([3]; 0.016 ppm): 8
Observed efficacy ([4]; 0.016 ppm): 16

O=c1c2cc(F)ccc2nc(-n2cncn2)n1-c1ccc(Cl)cc1Cl [Fluquinconazol]
Observed efficacy ([6]; 4 ppm): 0

CC(O)(Cn1cncn1)c1ccc(Oc2ccc(Cl)cc2)cc1Cl (centres unmarked) [I-17, 2-[2-chloro-4-(4-chlorophenoxy)phenyl]-1-(1,2,4-triazol-1-yl)propan-2-ol]
inhibition of growth at 16 ppm [6, 7]: 5%
inhibition of growth at 1 ppm [2]: 61%
inhibition of growth at 6.3e-05 ppm ([5]; Botrytis cinerea, 168 h, 0.000063 ppm, read-out: Observed efficacy): 9%
inhibition of growth at […] [5, 8]: 0%
inhibition of growth at […] [5, 9]: 0%
inhibition of growth at 4e-06 ppm ([3]; Alternaria solani, 168 h, 0.000004 ppm, read-out: Observed efficacy): 6%
inhibition of growth at 1.6e-05 ppm ([3]; Alternaria solani, 168 h, 0.000016 ppm, read-out: Observed efficacy): 0%
inhibition of growth at 6.3e-05 ppm ([3]; Alternaria solani, 168 h, 0.000063 ppm, read-out: Observed efficacy): 0%
inhibition of growth at 1e-06 ppm ([4]; Zymoseptoria tritici, 168 h, 0.000001 ppm, read-out: Observed efficacy): 14%
inhibition of growth at 4e-06 ppm ([4]; Zymoseptoria tritici, 168 h, 0.000004 ppm, read-out: Observed efficacy): 12%
inhibition of growth at 1.6e-05 ppm [4, 10]: 19%
inhibition of growth at 2.5e-07 ppm [4, 11]: 10%

CC(C)C(O)(Cn1cncn1)c1ccc(Oc2ccc(Cl)cc2)cc1Cl (centres unmarked) [I-19, 2-[2-chloro-4-(4-chlorophenoxy)phenyl]-3-methyl-1-(1,2,4-triazol-1-yl)butan-2-ol]
inhibition of growth at […] ([1]; Parastagonospora nodorum, 168 h, 0.25 ppm, read-out: Observed efficacy): 64%
inhibition of growth at 0.016 ppm [5, 12]: 20%
inhibition of growth at […] [5, 8]: 29%
inhibition of growth at 0.001 ppm [3, 13]: 1%
inhibition of growth at 0.004 ppm [3, 14]: 0%
inhibition of growth at 0.016 ppm [3, 15]: 0%
inhibition of growth at […] [3, 16]: 25%
inhibition of growth at 1.6e-05 ppm [4, 10]: 12%
inhibition of growth at 0.001 ppm [4, 10]: 20%
inhibition of growth at 6.3e-05 ppm [4, 11]: 13%

COC(C)(Cn1cncn1)c1ccc(Oc2ccc(Cl)cc2)cc1Cl (centres unmarked) [I-20, 1-[2-[2-chloro-4-(4-chlorophenoxy)phenyl]-2-methoxy-propyl]-1,2,4-triazole]
inhibition of growth at 0.001 ppm [1, 17]: 5%
inhibition of growth at 0.004 ppm [1, 17]: 10%
inhibition of growth at 0.016 ppm [1, 18]: 14%
inhibition of growth at 0.016 ppm [2]: 0%
inhibition of growth at […] [5, 8]: 16%
inhibition of growth at […] [5, 9]: 16%
inhibition of growth at 1 ppm [5, 19]: 58%
inhibition of growth at 0.004 ppm [3, 14]: 0%
inhibition of growth at […] [3, 16]: 30%
inhibition of growth at 0.001 ppm [4, 10]: 5%

COCC(O)(Cn1cncn1)c1ccc(Oc2ccc(Cl)cc2)cc1Cl (centres unmarked) [I-26, 2-[2-chloro-4-(4-chlorophenoxy)phenyl]-1-methoxy-3-(1,2,4-triazol-1-yl)propan-2-ol]
inhibition of growth at 0.001 ppm [1, 17]: 9%
inhibition of growth at 0.004 ppm [1, 17]: 15%
inhibition of growth at 0.016 ppm [1, 18]: 24%
inhibition of growth at 0.016 ppm [2]: 0%
inhibition of growth at 1 ppm [2]: 55%
inhibition of growth at […] [5, 8]: 44%
inhibition of growth at 0.001 ppm [3, 13]: 5%
inhibition of growth at 0.016 ppm [3, 15]: 4%
inhibition of growth at 0.001 ppm [4, 10]: 29%
inhibition of growth at 6.3e-05 ppm [4, 11]: 19%

CCCCCCCCc1c(CC)nc2ncnn2c1N [II-1, ametoctradin, reference compound]
Observed efficacy ([6]; 1 ppm): 75
Observed efficacy ([5]; 16 ppm): 3
Observed efficacy ([5]; 63 ppm): 4
Observed efficacy ([3]; 4 ppm): 5
Observed efficacy ([3]; 16 ppm): 2
Observed efficacy ([3]; 63 ppm): 6

CCOC(=O)C1CC(=O)C(=C(O)C2CC2)C(=O)C1 (centres unmarked) [II-3a, trinexapac-ethyl, reference compound]
inhibition of growth at 4 ppm [2]: 5%
inhibition of growth at 16 ppm [2]: 21%
inhibition of growth at 63 ppm [2]: 81%
inhibition of growth at 4 ppm [5, 20]: 7%
inhibition of growth at 16 ppm [5, 21]: 5%
inhibition of growth at 63 ppm ([5]; Botrytis cinerea, 168 h, 63 ppm, read-out: Observed efficacy): 15%
inhibition of growth at 4 ppm [3, 22]: 12%
inhibition of growth at 16 ppm [3, 23]: 27%
inhibition of growth at 4 ppm ([4]; Zymoseptoria tritici, 168 h, 4 ppm, read-out: Observed efficacy): 13%

Cn1cc(C(=O)Nc2ccc(F)cc2-c2ccc(Cl)c(Cl)c2)c(C(F)F)n1 [II-6, bixafen, reference compound]
Observed efficacy ([2]; 0.016 ppm): 2
Observed efficacy ([5]; 0.016 ppm): 8
Observed efficacy ([3]; 0.001 ppm): 5
Observed efficacy ([3]; 0.004 ppm): 38

O=C(Nc1ccccc1-c1ccc(Cl)cc1)c1cccnc1Cl [II-7, boscalid, reference compound]
inhibition of growth at 4 ppm ([1]; Parastagonospora nodorum, 168 h, 4 ppm, read-out: Observed efficacy): 23%
inhibition of growth at 16 ppm [2]: 2%
inhibition of growth at […] [5, 9]: 38%
inhibition of growth at 0.001 ppm [3, 13]: 5%
inhibition of growth at 0.004 ppm [3, 14]: 6%

COC(=O)Nc1nc2ccccc2[nH]1 [II-8, carbendazim, reference compound]
inhibition of growth at 0.004 ppm ([5]; Botrytis cinerea, 168 h, 0.004 ppm, read-out: Observed efficacy): 5%
inhibition of growth at 0.016 ppm [5, 12]: 3%
inhibition of growth at 4 ppm [3, 22]: 7%
inhibition of growth at 16 ppm [3, 23]: 10%
inhibition of growth at 63 ppm [3, 24]: 34%
inhibition of growth at 16 ppm ([4]; Zymoseptoria tritici, 168 h, 16 ppm, read-out: Observed efficacy): 16%

N#Cc1nn(-c2c(Cl)cc(C(F)(F)F)cc2Cl)c(N)c1[S+]([O-])C(F)(F)F (centres unmarked) [II-20c, fipronil, reference compound]
inhibition of growth at 1 ppm [6, 7]: 4%
inhibition of growth at 4 ppm [2]: 1%
inhibition of growth at 16 ppm [2]: 8%
inhibition of growth at 1 ppm ([3]; Alternaria solani, 168 h, 1 ppm, read-out: Observed efficacy): 6%
inhibition of growth at 4 ppm [3, 22]: 2%

N#Cc1c[nH]cc1-c1cccc2c1OC(F)(F)O2 [II-34, fludioxonil, reference compound]
inhibition of growth at 0.016 ppm [2]: 36%

CO/N=C(/C1=NOCCO1)c1ccccc1Oc1ncnc(Oc2ccccc2Cl)c1F [II-37, fluoxastrobin, reference compound]
inhibition of growth at 0.016 ppm [6, 7]: 4%
inhibition of growth at 0.004 ppm [2]: 3%
inhibition of growth at 0.016 ppm [2]: 8%
inhibition of growth at 1 ppm [5, 19]: 5%
inhibition of growth at 4 ppm [5, 20]: 10%
inhibition of growth at 16 ppm [5, 21]: 23%
inhibition of growth at 0.016 ppm [3, 15]: 11%
inhibition of growth at […] [3, 16]: 27%

Cn1cc(C(=O)Nc2ccccc2-c2cc(F)c(F)c(F)c2)c(C(F)F)n1 [II-42, fluxapyroxad, reference compound]
Observed efficacy ([3]; 0.001 ppm): 4

CC(C)C1C2CCC1c1c(NC(=O)c3cn(C)nc3C(F)F)cccc12 (centres unmarked) [II-50, isopyrazam, reference compound]
Observed efficacy ([6]; 16 ppm): 23
Observed efficacy ([2]; 0.004 ppm): 1
Observed efficacy ([5]; 0.016 ppm): 6
Observed efficacy ([3]; 0.016 ppm): 15

Cc1ccc(C(C)NC(=O)[C@@H](NC(=O)OC(C)C)C(C)C)cc1 (some centres unmarked) [II-51, iprovalicarb, reference compound]
Observed efficacy ([1]; 16 ppm): 19
Observed efficacy ([2]; 4 ppm): 0
Observed efficacy ([5]; 4 ppm): 2
Observed efficacy ([5]; 16 ppm): 3
Observed efficacy ([5]; 63 ppm): 6
Observed efficacy ([3]; 4 ppm): 1
Observed efficacy ([3]; 16 ppm): 2
Observed efficacy ([3]; 63 ppm): 1

CON=C(C(=O)OC)c1ccccc1CON=C(C)c1cccc(C(F)(F)F)c1 [II-92, trifloxystrobin, reference compound]
inhibition of growth at […] ([1]; Parastagonospora nodorum, 168 h, 0.063 ppm, read-out: Observed efficacy): 39%
inhibition of growth at 0.004 ppm [2]: 11%
inhibition of growth at 0.016 ppm [2]: 26%
inhibition of growth at 4 ppm [5, 20]: 2%
inhibition of growth at 16 ppm [5, 21]: 6%
inhibition of growth at 0.004 ppm [3, 14]: 7%
inhibition of growth at 0.016 ppm [3, 15]: 11%

CC1(C)CCC(Cc2ccc(Cl)cc2)C1(O)Cn1cncn1 (centres unmarked) [Metconazol]
Observed efficacy ([6]; 0.004 ppm): 2
Observed efficacy ([2]; 1 ppm): 58
Observed efficacy ([3]; 0.016 ppm): 17
Observed efficacy ([4]; 0.016 ppm): 24

CCN(Cc1ccc(Cl)nc1)/C(=C/[N+](=O)[O-])NC [Nitenpyram]
inhibition of growth at 63 ppm ([1]; Parastagonospora nodorum, 168 h, 63 ppm, read-out: Observed efficacy): 23%
inhibition of growth at 4 ppm [2]: 1%
inhibition of growth at 16 ppm [2]: 0%
inhibition of growth at 63 ppm [2]: 3%
inhibition of growth at 4 ppm [3, 22]: 2%
inhibition of growth at 16 ppm [3, 23]: 2%
inhibition of growth at 63 ppm [3, 24]: 8%
inhibition of growth at 63 ppm ([4]; Zymoseptoria tritici, 168 h, 63 ppm, read-out: Observed efficacy): 10%

CCC(=O)C1=C([O-])CC(C(=O)[O-])CC1=O.[Ca+2] (centres unmarked) [Prohexadion-ca]
Observed efficacy ([2]; 4 ppm): 2
Observed efficacy ([2]; 16 ppm): 2
Observed efficacy ([2]; 63 ppm): 3
Observed efficacy ([5]; 4 ppm): 10
Observed efficacy ([5]; 16 ppm): 5
Observed efficacy ([5]; 63 ppm): 4
Observed efficacy ([3]; 4 ppm): 6
Observed efficacy ([3]; 16 ppm): 2
Observed efficacy ([4]; 63 ppm): 15

CC(C)(C)C(O)(CCc1ccc(Cl)cc1)Cn1cncn1 (centres unmarked) [Tebuconazol]
Observed efficacy ([6]; 0.016 ppm): 1
Observed efficacy ([5]; 0.016 ppm): 9
Observed efficacy ([3]; 0.016 ppm): 8
Observed efficacy ([4]; 0.016 ppm): 5

CC1(C)CC/C(=C\c2ccc(Cl)cc2)C1(O)Cn1cncn1 (centres unmarked) [Triticonazol]
Observed efficacy ([2]; 1 ppm): 1
Observed efficacy ([2]; 4 ppm): 59
